Values of other authors as cited in patent US10952981B2, “Liquid pharmaceutical compositions of baclofen for oral administration” (SLAYBACK PHARMA LLC, priority 2019, dated 2021).

SMILES: NCC(CC(=O)O)c1ccc(Cl)cc1 (stereo not drawn) [Baclofen, 4-amino-3-(4-chlorophenyl)-butanoic acid]
- Concentration of baclofen obtainable (aqueous 0.1N HCl or 0.1N NaOH, Ahuja (1985)): greater than 20 mg/mL
- Equilibrium concentration (as referred to for Allen et al., 1996, Johnson and Hart, 1993): 4.3 mg/mL
- Solubility at near neutral pH (at a concentration of 2 mg/mL, near neutral pH): not soluble
- Solubility in chloroform (chloroform): insoluble
- Solubility in methanol (methanol): very slightly soluble
- Solubility in water (water): slightly soluble
